The results in this text go back to paper PMC12830947, “Structure and mechanism of the broad spectrum CRISPR-associated ring nuclease Crn4” (Nature Communications, 2025).

In assay [1] the target is T1, Crn4b (Hyphomicrobiales bacterium, UniProt A0ACM8DFW0).
T1 construct: synthetic codon-optimised gene, pEhisV5TEV, E. coli C43(DE3); His tag removed by TEV; homodimer
T1 sequence (A0ACM8DFW0 5-128): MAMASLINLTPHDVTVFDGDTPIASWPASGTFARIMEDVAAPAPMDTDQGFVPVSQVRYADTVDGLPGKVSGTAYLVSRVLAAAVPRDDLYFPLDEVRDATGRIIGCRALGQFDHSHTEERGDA
The assay can be described thus: HPLC ring nuclease assay. It is filed as biochemical. To be noted: pH 7.5, 250 mM NaCl, 1 mM EDTA, 37 C.

For assay [2], the target named is T2, Crn4a (Actinomyces procaprae, UniProt Z9F5G1FLT2).
T2 construct: synthetic codon-optimised gene, pEhisV5TEV, E. coli C43(DE3); His tag removed by TEV; homodimer, one cA6 per dimer at the dimer interface
T2 sequence (Z9F5G1FLT2 1-149): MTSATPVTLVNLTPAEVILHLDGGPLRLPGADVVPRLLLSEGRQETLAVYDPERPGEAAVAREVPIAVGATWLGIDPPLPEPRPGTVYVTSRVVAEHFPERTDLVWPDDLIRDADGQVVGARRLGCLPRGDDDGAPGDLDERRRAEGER
Nature of the assay: X-ray co-crystal structure, […] A. It is filed as binding. To be noted: active site at dimer interface, one cA6 per dimer; two Mg2+; pH 5.5; inactive variant.

Assay [3] concerns the target Actinomyces procaprae Crn4a (CRISPR ring nuclease 4, subfamily a), wild type (Actinomyces procaprae). The assay can be described thus: crystal structure; apo Crn4a at 13 mg/mL, sitting drop at 293 K, 0.1 M sodium acetate pH 4.5, 22% v/v PEG Smear Broad; 2.34 Å.
Assay [4] addresses Actinomyces procaprae Crn4a H15A variant (Actinomyces procaprae). Nature of the assay: crystal structure; Crn4a H15A at 11 mg/mL with 1.2 molar excess of cA6, sitting drop at 293 K, 23.8% PEG 3350, 0.2 M magnesium chloride, 0.1 M Bis-Tris pH 5.5; 1.44 Å.
The target in assay [5] is Hyphomicrobiales bacterium Crn4b (CRISPR ring nuclease 4, subfamily b), wild type (Hyphomicrobiales bacterium). The assay can be described thus: crystal structure; apo Crn4b at 15 mg/mL, sitting drop at 293 K, 20% PEG 6000, 10% ethylene glycol, 0.1 M calcium chloride; 1.09 Å.

For the compound `Nc1ncnc2c1ncn2[C@@H]1O[C@@H]2COP(=O)(O)O[C@H]3[C@@H](O)[C@H](n4cnc5c(N)ncnc54)O[C@@H]3COP(=O)(O)O[C@H]3[C@@H](O)[C@H](n4cnc5c(N)ncnc54)O[C@@H]3COP(=O)(O)O[C@H]2[C@H]1O` [cA3], the “HPLC ring nuclease assay” value in assay [1] (intermediate A3>P) was “Crn4b degraded cA4 and cA3 but was inactive against cA6”.

`Nc1ncnc2c1ncn2[C@@H]1O[C@@H]2COP(=O)(O)O[C@H]3[C@@H](O)[C@H](n4cnc5c(N)ncnc54)O[C@@H]3COP(=O)(O)O[C@H]3[C@@H](O)[C@H](n4cnc5c(N)ncnc54)O[C@@H]3COP(=O)(O)O[C@H]3[C@@H](O)[C@H](n4cnc5c(N)ncnc54)O[C@@H]3COP(=O)(O)O[C@H]2[C@H]1O` [cA4, cyclic tetra-adenylate]: the “HPLC ring nuclease assay” value in assay [1] (sequential cleavage via A4>P) was “Crn4b degraded cA4 and cA3 but was inactive against cA6”.

For `Nc1ncnc2c1ncn2[C@@H]1O[C@@H]2COP(=O)(O)O[C@H]3[C@@H](O)[C@H](n4cnc5c(N)ncnc54)O[C@@H]3COP(=O)(O)O[C@H]3[C@@H](O)[C@H](n4cnc5c(N)ncnc54)O[C@@H]3COP(=O)(O)O[C@H]3[C@@H](O)[C@H](n4cnc5c(N)ncnc54)O[C@@H]3COP(=O)(O)O[C@H]3[C@@H](O)[C@H](n4cnc5c(N)ncnc54)O[C@@H]3COP(=O)(O)O[C@H]3[C@@H](O)[C@H](n4cnc5c(N)ncnc54)O[C@@H]3COP(=O)(O)O[C@H]2[C@H]1O` [cA6, cyclic hexa-adenylate], the “X-ray co-crystal structure, 1.44 A” value in assay [2] was “The structure of Crn4a in complex with cA6 shows the ligand binds at the dimer interface”.

The term stoichiometry N denotes a count of units in the complex or per binding partner. In assay [3], “Actinomyces procaprae Crn4a (CRISPR ring nuclease 4, subfamily a), wild type (enzyme)” gave a stoichiometry N of 2.

The compound “Actinomyces procaprae Crn4a H15A variant (enzyme)” registered a stoichiometry N in assay [4] of 2.

“Hyphomicrobiales bacterium Crn4b (CRISPR ring nuclease 4, subfamily b), wild type (enzyme)”: the stoichiometry N in assay [5] came out at 2.
